Assay results: patent US10787423B2, “Piperazine and piperidine derivatives, their synthesis and use thereof in inhibiting VDAC oligomerization, apoptosis and mitochondria dysfunction” (THE NATIONAL INSTITUTE FOR BIOTECHNOLOGY IN THE NEGEV LTD., priority 2015, dated 2020)

Biological target: T1, rVDAC1-GFP2 / rVDAC1-Rluc in T-REx-293 cells (Rattus norvegicus, UniProt Q9Z2L0)
T1 construct: The rVDAC1 gene was cloned into BamHI and HindIII sites of the BRET2 plasmids (N2 variants); expressed in transfected cells; host or cells: T-REx-293 cells stably expressing hVDAC1-shRNA (T-REx-pS10)
T1 sequence (Q9Z2L0 with tags, fused parts or gaps limits assumed): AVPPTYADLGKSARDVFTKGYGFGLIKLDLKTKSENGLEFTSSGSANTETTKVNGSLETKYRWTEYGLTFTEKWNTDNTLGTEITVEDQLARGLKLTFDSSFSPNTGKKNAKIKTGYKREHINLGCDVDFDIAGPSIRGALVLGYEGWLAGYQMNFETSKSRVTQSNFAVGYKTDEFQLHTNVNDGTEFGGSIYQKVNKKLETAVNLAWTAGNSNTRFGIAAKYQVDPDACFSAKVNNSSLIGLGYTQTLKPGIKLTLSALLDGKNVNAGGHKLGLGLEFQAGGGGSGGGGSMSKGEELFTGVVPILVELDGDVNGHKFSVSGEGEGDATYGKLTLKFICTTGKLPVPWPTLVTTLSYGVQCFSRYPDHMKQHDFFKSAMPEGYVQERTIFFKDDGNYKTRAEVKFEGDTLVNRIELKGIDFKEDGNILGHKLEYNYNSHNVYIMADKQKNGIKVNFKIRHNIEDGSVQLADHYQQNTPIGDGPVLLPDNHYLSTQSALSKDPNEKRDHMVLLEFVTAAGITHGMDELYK
Test: BRET2 assay of VDAC1 oligomerization induced by apoptosis inducers (Method A)
Format: cell-based
Details: test compound 10 μM, 1 h pre-incubation; for BRET2, % of inhibition, As2O3: As2O3 60 μM (3 h); for BRET2, % of inhibition, STS: STS 1 μM (3 h); for BRET2, % of inhibition, Selenite: selenite 30 μM (3 h)
Source text: BRET2 screening may be carried out as described in the art ([…] et al., (2010) Oligomerization of the mitochondrial protein voltage-dependent anion channel is coupled to the induction of apoptosis. Mol Cell Biol 30, 5698-5709). Plasmids encoding the fusion proteins rat(r)VDAC1-GFP2 and rVDAC1-luc were constructed using the BRET2 plasmids (Perkin Elmer, Waltham, Mass.). The rVDAC1 gene was cloned into BamHI and HindIII sites of the BRET2 plasmids (N2 variants) and amplified using the forward primer [NT] and the reverse primer [NT]. […] The cells were transfected using calcium phosphate method. Transfections were carried out with 0.2 μg of a plasmid coding for rVDAC1-Rluc and with 0.8 μg of a plasmid coding for rVDAC1-GFP2. As a negative control, cells were transfected with plasmids encoding for rVDAC1-Rluc (0.2 μg DNA) and GFP2 (0.8 μg). In another control (control cells), cells were also transfected with a plasmid encoding for rVDAC1-luc (0.2 μg) and plasmid pcDNA4/TO (0.8 μg). The BRET2 signal represents the ratio of the GFP2 fluorescence, measured at its emission wavelength (510 nm), over the light intensity (luminescence) emitted at 395 nm. All measurements were performed using the Infinite 200 ELISA reader (Tecan). BRET2 signals were defined as GFP2/Rluc intensity ratio and calculated as follows: DNA encoding fusion proteins rVDAC1-Rluc (in which RLuc was connected to rVDAC1 at the C terminal position through a linker (GGGS)) and rVDAC1-GFP2 (in which the GFP2 was fused to the rVDAC1 C terminus) was cloned into BRET2 vectors. rVDAC1-GFP2 and rVDAC1-Rluc were expressed in T-REx-293 cells stably expressing shRNA-hVDAC1 and a low level of endogenous hVDAC1 (referred to as T-REx-pS10 cells) hVDAC1-shRNA, being specific to human VDAC1, allowed the expression of rVDAC1 and decreased the participation of endogenous hVDAC1 in oligomerization, thereby enhancing the BRET2 signal. rVDAC1-GFP2 and rVDAC1-Rluc expression levels were correlated with the amount of plasmids used. […] Following incubation, cells were harvested using trypsin, washed twice with PBS by centrifugation at 1000×g, 5 min, resuspended in 200 μl of PBS and divided between two wells of a 96-well clear-bottom plate (Grenier). […] The screening was conducted using BRET2 assay as described above. […] After treatment, the medium was removed and assayed for BRET2 signals as described above. Liquid handling was done with the Tecan (Männedorf, Switzerland) Freedom 150 Robotic & MCA Liquid Handling System, while luciferase luminescence and fluorescence readings were obtained a robot-integrated Tecan Infinite M1000 reader. Method A was used for screening of VDAC1 oligomerization inhibitors. […] Table 2 provides a summary of BRET2-based screen results of the anti-VDAC1 oligomerization activity of compounds from the NCI library. Results are presented as percent inhibition of the BRET2 signal induced by the indicated pro-apoptotic agent.

SMILES | BRET2, % of inhibition, As2O3 [%] | BRET2, % of inhibition, STS [%] | BRET2, % of inhibition, Selenite [%]
CCCOc1nc2c(c(=O)n(C)c(=O)n2C)n1C [NSC 8816] | 49.6 | 0 | 20.1
COc1ccc(/C=C2/CCOC2=O)cc1 [NSC 10428] | 96.4 | 38.2 | 75.7
CCOC(=O)c1[nH]c(CO)c(C(=O)OCC)c1C [NSC 10768] | 52 | 0 | 9.6
Oc1ccc(Cc2ccc(Cl)cc2)c(O)c1 [NSC 11150] | 95.2 | 11.6 | 67
CCOC(=O)N1CCN(Cc2c(O)ccc3ccccc23)CC1 [NSC 12262] | 81.5 | 0 | 67.4
O=C(/C=C/c1ccccc1Cl)c1ccc(O)cc1 [NSC 13151] | 67 | 0 | 0
Nc1ccc(C(=O)Nc2cccc(N)c2)cc1 [NSC 15362] | 98 | 39.7 | 41
Nc1ccc(NC(=O)Nc2ccc(N)cc2)cc1 [NSC 15364] | 85.4 | 40.9 | 75.9
O=C(O)c1ccc(O)c(O)c1 [NSC 16631] | 0 | 30.5 | 41.5
Nc1ncnc2c1cnn2C1CCCCC1 [NSC 19115] | 64.2 | 36.4 | 62
S=c1nc[nH]c2c1ncn2C1CCCC1 [NSC 19487] | 88.8 | 32.6 | 68.6
O=[N+]([O-])c1cccc(/C=C/c2ccccn2)c1 [NSC 19637] | 76.2 | 0 | 61.8
CC(C)NC(=O)c1ccc(C(C)C)cc1 [NSC 20045] | 88 | 0 | 77.4
Cc1ccc(-n2nnnc2-c2cccnc2)cc1 [NSC 23247] | 97.3 | 0 | 52.1
CCN1CCc2ccccc2C1 [NSC 28837] | 85.2 | 0.3 | 48.3
CCOc1ccc(Nc2c3ccccc3nc3ccccc23)cc1 [NSC 30205] | 62.7 | 0 | 0
CC(C)COC(=O)NC1c2ccccc2Oc2ccccc21 [NSC 31069] | 74.9 | 0 | 0
COc1c(NC(C)=O)c2ccccc2c2ccccc12 [NSC 31698] | 51.3 | 0 | 2.1
CCOC(=O)Nc1ccc(C(=O)/C=C/c2ccccc2)cc1 [NSC 31703] | 56.7 | 16.6 | 33.3
CC1=CC(=O)C(C(C)=Nc2ccccc2Cl)C(=O)O1 (stereo not drawn) [NSC 32892] | 55.4 | 0 | 16.4
O=c1c(-c2ccc(O)cc2)coc2cc(O)cc(O)c12 [NSC 36586] | 49 | 0 | 0
